Holding throughout (assay type): functional
Assay [1] concerns Radical scavenging activity. Briefly: Antioxidant activity assessed as DPPH free radical scavenging activity after 10 mins by UV-Vis spectrophotometric analysis.
Assay [2] can be described thus: Antioxidant activity assessed as trolox equivalents of ABTS radical scavenging activity by TEAC assay.
Assay [3] in a line: Antioxidant activity in soybean lipoxygenase-induced beta-carotene-linoleic acid co-oxidation assessed as inhibition of beta-carotene bleaching after 10 mins relative to control. Details: scale not given: the % may be the effect or the level left.

Broadly, the EC50 is the concentration at which the effect is half-maximal.

Structures are written as SMILES. Where only a bound is given, the exact number is not on record here.

For the compound `O=c1cc(O)c2ccccc2o1` [4-HYDROXYCOUMARINS], the EC50 in assay [1] was found to be 3.8 mM. The Activity in assay [2] turned out to be 186 µmolequiv/g; in assay [3], 2.07 %/mmol.
For the compound `O=c1oc2ccccc2c(O)c1-c1cccc2ccccc12`, the EC50 in assay [1] was determined as 6.41 mM. For the same compound, the values for the Activity in assay [2] and in assay [3] were 56.8 µmolequiv/g and 4.26 %/mmol, respectively.
The matching figures for `COc1ccccc1-c1c(O)c2ccccc2oc1=O`: 1.92 mM, 567 µmolequiv/g and 25.5 %/mmol.
The matching figures for `O=c1oc2ccccc2c(O)c1-c1ccc(Cl)cc1`: 4.15 mM, 50 µmolequiv/g and 5.94 %/mmol.
The matching figures for `COc1ccc(-c2c(O)c3ccccc3oc2=O)cc1`: 0.54 mM, 699 µmolequiv/g and 23.1 %/mmol.
For `Cc1cc(=O)oc2cc(O)ccc12` [HYMECROMONE], the EC50 in assay [1] is 8.9 mM. For the same compound, the figures for the Activity in assay [2] and in assay [3] were 54.8 µmolequiv/g and below 0.5 %/mmol, respectively.
Turning to `O=c1oc2ccccc2c(O)c1-c1ccccc1Cl`, in assay [1], the EC50 is 4.14 mM. In addition, in assay [2], the Activity worked out at 50 µmolequiv/g.
On to `O=c1oc2ccccc2c(O)c1-c1ccccc1`, for which the EC50 in assay [1] came to 4.19 mM. In addition, the Activity in assay [2] was 46.6 µmolequiv/g; in assay [3], 5.79 %/mmol.

Values taken from ChEMBL document CHEMBL1914374, “Effect of different C3-aryl substituents on the antioxidant activity of 4-hydroxycoumarin derivatives” (Bioorg Med Chem, 2011).
